Measurements reported in patent US20200308165A1, “Compounds as Ras Inhibitors and Use Thereof” (D.E. Shaw Research, LLC, priority 2017, published 2020).
pIC50: −log10 of the molar value.

Key:
Ras protein = Ras protein (Homo sapiens, UniProt P01116); test: GDPx_Icagen_IC50: SOS1-mediated guanine nucleotide exchange rate of Ras (mant-GDP); assay type: biochemical; details: SOS1-initiated exchange
Excerpt: (§1) In some embodiments, the IC50 assay measures the reduction effect of a given compound on the guanine nucleotide-echange rate of Ras protein in the presence of guanine nucleotide exchange protein SOS1, which is a Ras activator. In the assay GDP-loaded Ras was first prepared in a buffer containing the compound at certain concentration and fluorescent guanine nucleotide (mant-GDP (used in Icagene assay) or mant-GTP (used in other IC50 assays). The guanine nucleotide exchange was initiated by the addition of the SOS1 and its rate was reflected in the rate of fluorescence change as a function of time, which was monitored by a reader. The experiment was repeated at different compound concentrations and the IC50 of the compound was defined as the compound concentration at which half of its maximal reduction effect on the guanine nucleotide exchange rate is achieved. In other embodiments, other Ras activator proteins may be used. Non-limiting examples of other Ras activator proteins include RasGRP (Ras guanyl-releasing protein).
Example 17. Evaluation of Biological Activities: GDPx_Icagen_ICso
as §1, with “The IC50” for “In some embodiments, the IC50”, “guanine nucleotide-exchange” for “guanine nucleotide-echange”, “Ras is” for “Ras was”, “nucleotide (mant-GDP).” for “nucleotide (mant-GDP (used in Icagene assay) or mant-GTP (used in other IC50 assays).”, “achieved.” for “achieved. In other embodiments, other Ras activator proteins may be used. Non-limiting examples of other Ras activator proteins include RasGRP (Ras guanyl-releasing protein).”

KRAS4B (wild type) = molecular target: T1, KRAS4B (wild type) (Homo sapiens, UniProt P01116); test: K-Ras Nucleotide Exchange Assay-384 (SOS Exchange Assay by Cytoskeleton, GTPx_Cyt_IC50); assay type: biochemical; details: 1 μM KRAS4B, 0.05 μM SOS1, 1.5 μM mant-GDP
T1 construct: purchased Cytoskeleton CS-RS03 (K-Ras4B); CS-SOS1-A (SOS1)
T1 sequence (P01116 1-188 isoform P01116-2): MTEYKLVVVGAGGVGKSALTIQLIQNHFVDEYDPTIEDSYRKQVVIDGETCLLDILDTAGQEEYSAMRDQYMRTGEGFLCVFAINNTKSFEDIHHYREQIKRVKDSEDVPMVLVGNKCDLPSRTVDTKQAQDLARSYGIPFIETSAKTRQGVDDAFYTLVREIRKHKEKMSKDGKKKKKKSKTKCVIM
Experimental: Example 16. Evaluation of Biological Activities: K-Ras Nucleotide Exchange Assay-384 (SOS Exchange Assay by Cytoskeleton (GTPx_Cyt_IC50))
This assay is used to evaluate inhibitors of K-ras, by monitoring the inhibition of nucleotide exchange over time, in the presence of the protein SOS.
384-well black, untreated plates (Corning 3820 with NBS or 3821 untreated) were used. K-Ras4B Protein was used, which is wild-type (Cytoskeleton #CS-RS03) with a concnetration of 5 mg/ml, or 200 μM. Human SOS1 Protein, Exchange Domain 564-1049 (Cytoskeleton # CS-SOS1-A) was used in a concentration of 3.03 mg/ml or 50 μM. Mant-GDP triethylammonium salt solution was purchased from Sigma (catalog No. 69244). 1M stock solution of Hepes was purchased from Sigma (catalog No. H9897). 1M stock solution of MgCl2 was purchased from Sigma (catalog No. M4880). CHAPS, 3% was purchased from Sigma (catalog No. C5070). Nonidet P40 was purchased from Sigma. KOH pellets were purchased from Sigma.
K-ras buffer containing 40 mM Hepes, 10 mM MgCl2, 0.05% CHAPS, 0.01% NP40 with a pH 7.5 was prepared as follows: to a Buffer base containing 4 ml 1M Hepes, 1 ml MgCl2,
93.3 ml d-H2O, pH 7.5 (with KOH pellets), 1.7 ml 3% CHAPS was added, followed by the addition of 1 ml 1% NP40.
Final Conditions of the method included 1 μM KRAS4B (wild type), 0.05 μM SOS1, 1.5 μM mant-GDP. Reagent Preparation included: thawing aliquots of KRAS, SOS, and mant-GDP; preparing 3x KRAS (3 uM) in assay buffer; preparing 3x SOS/mant-GDP (150 nM/4.5 uM) in assay buffer; and preparing 3x compounds in assay buffer.
Assay Procedure (1536) used 3.3 μl, 3x Kras, 3.3 μl 3x compound with preincubate 0 hour, and […] 3x SOS/mant-GDP. A kinetic read measuring fluorescence at 360_450 was performed for 30 min at 30 second intervals.
Reference compound SCH 54292 (reversible inhibitor) at about 100 μM was used with no preincubation. Reagents were only stable for 45 min on ice, and therefore were prepared fresh before each assay. Partial plates (up to 9 columns) were run at a time to minimize effects due to the amount of time it takes to read a whole plate. SOS/mant-GDP were added with an automated pipettor to initiate all reactions at the same time. Assay was typically performed at 0.5% solution in DMSO (compounds prepared in 1.5% DMSO initially).
Clariostar Settings were as follows. Test Name was Kras Kinetic 360-450. Basic settings of the test included Measurement type as Fluorescence (FI), and Microplate name as Corning 3820. Plate mode settings included 61 cycles, 30 second cycle time, and 10 flashes per well. Optic settings were as follows. Excitation wavelength was 360 nm. Emission wavelength was 450 nM. Excitation bandwidth was 12 nm. Emission bandwidth was 12 nm. Dichroic filter 405 was used. D6 Well(s) was used for gain adjustment. No shaking was used. General settings were as follows. Top optic was used. Settling time was 0.1 second. Reading direction was bidirectional, horizontal left to right, and bottom to top. The target temperature was 25° C.

Chain of Ras protein (P01116 1-188 isoform P01116-2): as above

| pIC50 (Ras protein) | pIC50 (KRAS4B (wild type)) | SMILES |
| --- | --- | --- |
| 6.70 | 3.52 | O=c1cc(CSc2ccccc2Cl)[nH]n1-c1nc2ccccc2[nH]1 [Compound 167, 2-(1H-benzo[d]imidazol-2-yl)-5-(((2-chlorophenyl)thio)methyl)-1,2-dihydro-3H-pyrazol-3-one] |
| 6.70 | 6.10 | O=c1cc(CSc2ccc(Cl)c(Cl)c2)[nH]n1-c1nc2ccccc2[nH]1 [Compound 172, 2-(1H-benzo[d]imidazol-2-yl)-5-(((3,4-dichlorophenyl)thio)methyl)-1,2-dihydro-3H-pyrazol-3-one] |
| 4.31 | 3.48 | O=c1cc(CSc2ccccc2)[nH]n1-c1cnccn1 [Compound 166, 5-((phenylthio)methyl)-2-(pyrazin-2-yl)-1,2-dihydro-3H-pyrazol-3-one] |
| 6.52 | 5.89 | O=c1cc(CSc2nc3cc(Cl)ccc3s2)[nH]n1-c1nc2ccccc2[nH]1 [Compound 154, 2-(1H-benzo[d]imidazol-2-yl)-5-(((5-chlorobenzo[d]thiazol-2-yl)thio)methyl)-1,2-dihydro-3H-pyrazol-3-one] |
| 4.00 | 5.85 | [N-]=[N+]=NCc1ccc(SCc2cc(=O)n(-c3nc4ccccc4[nH]3)[nH]2)cc1 [Compound 162, 5-(((4-(azidomethyl)phenyl)thio)methyl)-2-(1H-benzo[d]imidazol-2-yl)-1,2-dihydro-3H-pyrazol-3-one] |
| 6.30 | 6.00 | CN1CCN(Cc2ccc(SCc3cc(=O)n(-c4nc5ccccc5[nH]4)[nH]3)cc2)CC1 [Compound 163, 2-(1H-benzo[d]imidazol-2-yl)-5-(((4-((4-methylpiperazin-1-yl)methyl)phenyl)thio)methyl)-1,2-dihydro-3H-pyrazol-3-one] |
| 5.15 | 5.59 | Cc1cccc(-n2[nH]c(CSc3ccccc3)cc2=O)n1 [Compound 169, 2-(6-methylpyridin-2-yl)-5-((phenylthio)methyl)-1,2-dihydro-3H-pyrazol-3-one] |
| 5.52 | 5.15 | O=c1cc(CSc2ncccn2)[nH]n1-c1nc2ccccc2[nH]1 [Compound 156, 2-(1H-benzo[d]imidazol-2-yl)-5-((pyrimidin-2-ylthio)methyl)-1,2-dihydro-3H-pyrazol-3-one] |
| 5.89 | 3.30 | Cc1ccc(SCc2cc(=O)n(-c3nc4ccccc4[nH]3)[nH]2)cc1 [Compound 186, 2-(1H-benzo[d]imidazol-2-yl)-5-((p-tolylthio)methyl)-1,2-dihydro-3H-pyrazol-3-one] |
| 4.68 | 3.30 | Cc1nnc(SCc2cc(=O)n(-c3nc4ccccc4s3)[nH]2)s1 [Compound 187, 2-(benzo[d]thiazol-2-yl)-5-(((5-methyl-1,3,4-thiadiazol-2-yl)thio)methyl)-1,2-dihydro-3H-pyrazol-3-one] |
| 3.70 | 3.52 | Cc1cc(C)nc(SCc2cc(=O)n(-c3ccccn3)n2C)n1 [Compound 165, 5-(((4,6-dimethylpyrimidin-2-yl)thio)methyl)-1-methyl-2-(pyridin-2-yl)-1,2-dihydro-3H-pyrazol-3-one] |
| 6.77 | 4.00 | O=c1cc(CSc2cccc(Cl)c2)[nH]n1-c1nc2ccccc2[nH]1 [Compound 171, 2-(1H-benzo[d]imidazol-2-yl)-5-(((3-chlorophenyl)thio)methyl)-1,2-dihydro-3H-pyrazol-3-one] |
| 5.03 | 5.57 | Cc1ccnc(-n2[nH]c(CSc3ccccc3)cc2=O)c1 [Compound 174, 2-(4-methylpyridin-2-yl)-5-((phenylthio)methyl)-1,2-dihydro-3H-pyrazol-3-one] |

Further lines, the compound ahead of its results:

| SMILES | pIC50 (Ras protein) | pIC50 (KRAS4B (wild type)) |
| --- | --- | --- |
| Cc1nnc(SCc2cc(=O)n(-c3nc4ccccc4[nH]3)[nH]2)s1 [Compound 147, 2-(1H-benzo[d]imidazol-2-yl)-5-(((5-methyl-1,3,4-thiadiazol-2-yl)thio)methyl)-1,2-dihydro-3H-pyrazol-3-one] | 5.48 | 6.07 |
| O=c1cc(CSc2ccccc2)[nH]n1-c1nc2ccccc2[nH]1 [Compound 144, 2-(1H-benzo[d]imidazol-2-yl)-5-((phenylthio)methyl)-1,2-dihydro-3H-pyrazol-3-one] | 6.52 | 6.38 |
| Cc1cc(C)nc(SCc2cc(=O)n(-c3nc4ccccc4[nH]3)[nH]2)n1 [Compound 146, 2-(1H-benzo[d]imidazol-2-yl)-5-(((4,6-dimethylpyrimidin-2-yl)thio)methyl)-1,2-dihydro-3H-pyrazol-3-one] | 5.74 | 5.59 |
| Cc1cc(C)nc(SCc2cc(=O)n(-c3ccccn3)[nH]2)n1 [Compound 143, 5-(((4,6-dimethylpyrimidin-2-yl)thio)methyl)-2-(pyridin-2-yl)-1,2-dihydro-3H-pyrazol-3-one] | 5.68 | 5.27 |
| O=c1cc(CSCc2ccc(F)cc2)[nH]n1-c1nc2ccccc2[nH]1 [Compound 148, 2-(1H-benzo[d]imidazol-2-yl)-5-(((4-fluorobenzyl)thio)methyl)-1,2-dihydro-3H-pyrazol-3-one] | 6.52 | 6.26 |
| Cc1c(CSc2ccccc2)[nH]n(-c2nc3ccccc3[nH]2)c1=O [Compound 141, 2-(1H-benzo[d]imidazol-2-yl)-4-methyl-5-((phenylthio)methyl)-1H-pyrazol-3(2H)-one] | 6.11 | 4.00 |
| O=c1cc(CSc2nc(-c3ccccc3)cs2)[nH]n1-c1nc2ccccc2[nH]1 [Compound 151, 2-(1H-benzo[d]imidazol-2-yl)-5-(((4-phenylthiazol-2-yl)thio)methyl)-1,2-dihydro-3H-pyrazol-3-one] | 6.40 | 6.40 |
| O=c1cc(CSc2ccccn2)[nH]n1-c1nc2ccccc2[nH]1 [Compound 142, 2-(1H-benzo[d]imidazol-2-yl)-5-((pyridin-2-ylthio)methyl)-1H-pyrazol-3(2H)-one] | 6.77 | 5.92 |
| O=c1cc(CSc2nnc(-c3ccccc3)o2)[nH]n1-c1nc2ccccc2[nH]1 [Compound 153, 2-(1H-benzo[d]imidazol-2-yl)-5-(((5-phenyl-1,3,4-oxadiazol-2-yl)thio)methyl)-1,2-dihydro-3H-pyrazol-3-one] | 5.70 | 6.10 |
| O=c1cc(COc2ccccc2)[nH]n1-c1nc2ccccc2[nH]1 [Compound145, 2-(1H-benzo[d]imidazol-2-yl)-5-(phenoxymethyl)-1,2-dihydro-3H-pyrazol-3-one] | 6.10 | 5.41 |
| Cc1csc(SCc2cc(=O)n(-c3nc4ccccc4[nH]3)[nH]2)n1 [Compound 152, 2-(1H-benzo[d]imidazol-2-yl)-5-(((4-methylthiazol-2-yl)thio)methyl)-1,2-dihydro-3H-pyrazol-3-one] | 6.22 | 6.21 |
